Biological target: T1, BiXyl43A (Bacteroides intestinalis, UniProt B3CES2)
T1 construct: gene BACINT_04203; GH43 module without signal peptide; N-terminal 6His tag (pET-46 Ek/LIC), E. coli BL21-CodonPlus(DE3)-RIL; IMAC and size exclusion
T1 sequence (B3CES2 1-325): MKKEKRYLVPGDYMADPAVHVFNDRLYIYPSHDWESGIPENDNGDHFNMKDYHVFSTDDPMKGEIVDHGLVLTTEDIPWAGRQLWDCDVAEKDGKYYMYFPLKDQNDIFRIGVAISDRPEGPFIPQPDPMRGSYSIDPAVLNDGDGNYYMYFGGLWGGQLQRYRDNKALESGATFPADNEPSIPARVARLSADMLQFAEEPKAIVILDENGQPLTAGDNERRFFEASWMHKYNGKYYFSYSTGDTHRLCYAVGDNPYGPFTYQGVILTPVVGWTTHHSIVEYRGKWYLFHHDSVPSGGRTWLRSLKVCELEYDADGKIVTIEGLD
Assay: HPAEC-PAD of hydrolysis products
Format: biochemical
Settings: pH […] sodium phosphate, […] NaCl, […] °C, […] min; […] substrate, […] enzyme

| Structure (SMILES) | HPAEC-PAD of hydrolysis products |
| --- | --- |
| OC1OC[C@@H](O[C@@H]2OC[C@@H](O[C@@H]3OC[C@@H](O)[C@H](O)[C@H]3O)[C@H](O)[C@H]2O)[C@H](O)[C@H]1O (some centres unmarked) [X3, xylotriose] | BiXyl43A against xylo-oligosaccharides (xylobiose, X2; xylotriose, X3; xylotetraose, X4 |
| OC1OC[C@@H](O[C@@H]2OC[C@@H](O)[C@H](O)[C@H]2O)[C@H](O)[C@H]1O (some centres unmarked) [X2, xylobiose] | xylo-oligosaccharides ranging from xylobiose to xylohexaose led to cleavage or hydrolysis to their unit sugar |

Source: paper PMC5041131, “Bacteroides intestinalis DSM 17393, a member of the human colonic microbiome, upregulates multiple endoxylanases during growth on xylan” (Scientific Reports, 2016)
